Papp A→B data for 16 molecules are collected here from patent US20200131669A1, “CYCLIC PEPTIDE COMPOUND HAVING HIGH MEMBRANE PERMEABILITY, AND LIBRARY CONTAINING SAME” (Chugai Seiyaku Kabushiki Kaisha, priority 2017, published 2020).

Molecules are shown by their SMILES. Positions of bridges follow the written chain, without caps; N, C: chain ends. Non-standard residues stand in square brackets, D forms with d. Residues, ends and D or L forms follow the SMILES beside them. *: point of attachment. 3Pal(6-NMe2) = CN(C)c1ccc(C[C@H](N)C(=O)O)cn1; NMePhe(3-Cl) = CN[C@@H](Cc1cccc(Cl)c1)C(=O)O; Gly(NCH2CH2Ph) = O=C(O)CNCCc1ccccc1; N(isopentyl)Gly = CC(C)CCNCC(=O)O; Gly(N-(CH2)2OEt) = CCOCCNCC(=O)O; NMeF = CN[C@@H](Cc1ccccc1)C(=O)O; NMeL = CN[C@@H](CC(C)C)C(=O)O; NMeV = CN[C@H](C(=O)O)C(C)C; NMeAbu = CC[C@H](NC)C(=O)O; NPentylGly = CCCCCNCC(=O)O; NMeS = CN[C@@H](CO)C(=O)O; NMeA = CN[C@@H](C)C(=O)O; Piperidide = C1CCN(*)CC1; Abu = CC[C@H](N)C(=O)O; NBuGly = CCCCNCC(=O)O; Isopentyl = CC(C)CC*; Sar = CNCC(=O)O; tBu = CC(C)(C)*; Propyl = CCC*

The nature of this series: Caco-2 membrane permeability, improved method as used in the following Examples (96-well, 20 to 24 h preincubation). The format is in vitro ADME. The following applies: human, Caco-2, Caco-2. In short, it runs like this:
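Caco-2 monolayers were grown three weeks and preincubated 20–24 h at 37 °C with compound in DMEM+FaSSIF (1% DMSO) apically. The assay then used compound in FaSSIF/HBSS (1% DMSO, pH 6.0) apically and HBSS with 4% BSA (pH 7.4) basally. Basal samples were taken at 180 min for LC/MS, and Papp (cm/sec) was calculated.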
Turning to `CCCOC[C@H]1C(=O)N[C@@H](Cc2ccc(N(C)C)nc2)C(=O)N(C)[C@@H](Cc2cccc(Cl)c2)C(=O)N(C)[C@@H](C)C(=O)N[C@@H]([C@@H](C)O)C(=O)N(CCC(C)C)CC(=O)N(C)[C@@H](C(C)C)C(=O)N[C@H](C(=O)N2CCCCC2)CC(=O)N(C)[C@@H](C)C(=O)N[C@@H](CC(C)C)C(=O)N(C)[C@@H](CC(C)C)C(=O)N1C` [pd401] ([NMeA]L[NMeL][NMeS](Propyl)[3Pal(6-NMe2)][NMePhe(3-Cl)][NMeA]T[N(isopentyl)Gly][NMeV]D-Piperidide; lactam N-11), the Papp A→B at 180 min was 2.9 ×10⁻⁶ cm/s.
Regarding `CCCCN1CC(=O)N(C)[C@@H](CC(C)C)C(=O)N[C@@H](Cc2ccc(N(C)C)nc2)C(=O)N(C)[C@@H](CC(C)C)C(=O)N[C@@H]([C@@H](C)O)C(=O)N(C)CC(=O)N(C)[C@@H](Cc2ccccc2)C(=O)N(C)[C@@H](CC(C)C)C(=O)N[C@@H](COCCC(C)C)C(=O)N(C)[C@@H](C)C(=O)N[C@H](C(=O)N2CCCCC2)CC1=O` [pd402] ([NBuGly][NMeL][3Pal(6-NMe2)][NMeL]T[Sar][NMeF][NMeL]S(Isopentyl)[NMeA]D-Piperidide; lactam N-11), the Papp A→B at 180 min is 1 ×10⁻⁶ cm/s. This Papp A→B at 180 min is about 2.9-fold lower than that of the molecule before.
`CCCCCN1CC(=O)N(C)[C@@H](CC(C)C)C(=O)N[C@H](C(=O)N2CCCCC2)CC(=O)N(C)[C@@H](C(C)C)C(=O)N[C@@H](CC(C)C)C(=O)N(C)[C@@H](CC)C(=O)N(C)[C@@H](Cc2ccccc2)C(=O)N[C@@H](C)C(=O)N(C)[C@@H](Cc2ccccc2)C(=O)N(C)[C@@H](CC)C(=O)N[C@@H]([C@@H](C)O)C1=O` [pd403] ([NMeV]L[NMeAbu][NMeF]A[NMeF][NMeAbu]T[NPentylGly][NMeL]D-Piperidide; lactam N-11) gave a Papp A→B at 180 min of 9 ×10⁻⁶ cm/s.
With `CCCCCN1CC(=O)N(C)[C@@H](Cc2ccccc2)C(=O)N(C)[C@@H](CC(C)C)C(=O)N[C@@H](COC(C)(C)C)C(=O)N(C)[C@@H](CC(C)C)C(=O)N[C@H](C(=O)N2CCCCC2)CC(=O)N(C)CC(=O)N(C)[C@@H](Cc2ccccc2)C(=O)N[C@@H](C(C)C)C(=O)N(C)[C@@H](C)C(=O)N[C@@H]([C@@H](C)O)C1=O` [pd404] ([Sar][NMeF]V[NMeA]T[NPentylGly][NMeF][NMeL]S(tBu)[NMeL]D-Piperidide; lactam N-11) the figure was 1.3 ×10⁻⁶ cm/s; with `CCCCCN1CC(=O)N(C)[C@@H](Cc2ccccc2)C(=O)N[C@@H](CC(C)C)C(=O)N(C)[C@@H](CC)C(=O)N[C@@H]([C@@H](C)O)C(=O)N(C)CC(=O)N(C)[C@@H](Cc2ccccc2)C(=O)N(C)[C@@H](CC)C(=O)N[C@@H](COC(C)(C)C)C(=O)N(C)[C@@H](CC(C)C)C(=O)N[C@H](C(=O)N2CCCCC2)CC1=O` [pd405] ([NPentylGly][NMeF]L[NMeAbu]T[Sar][NMeF][NMeAbu]S(tBu)[NMeL]D-Piperidide; lactam N-11), 2.2 ×10⁻⁶ cm/s; with `CCCCCN1CC(=O)N[C@@H]([C@@H](C)O)C(=O)N(C)[C@@H](C)C(=O)N(C)[C@@H](CC(C)C)C(=O)N[C@@H](COC(C)(C)C)C(=O)N(C)[C@@H](Cc2ccccc2)C(=O)N(C)[C@@H](CC(C)C)C(=O)N[C@H](C(=O)N2CCCCC2)CC(=O)N[C@H](C)C(=O)N(C)[C@@H](Cc2ccccc2)C(=O)N[C@@H](C(C)C)C1=O` [pd407] ([dA][NMeF]V[NPentylGly]T[NMeA][NMeL]S(tBu)[NMeF][NMeL]D-Piperidide; lactam N-11), 3 ×10⁻⁶ cm/s.
`CCCCCN1CC(=O)N[C@@H]([C@@H](C)O)C(=O)N(C)CC(=O)N(C)[C@@H](CC(C)C)C(=O)N[C@H](C(=O)N2CCCCC2)CC(=O)N(C)[C@@H](CC)C(=O)N[C@@H](CC(C)C)C(=O)N(C)[C@@H](CC(C)C)C(=O)N(C)[C@@H](Cc2ccccc2)C(=O)N[C@@H](CC)C(=O)N(C)[C@@H](Cc2ccccc2)C1=O` [pd408] ([NMeAbu]L[NMeL][NMeF][Abu][NMeF][NPentylGly]T[Sar][NMeL]D-Piperidide; lactam N-11): the Papp A→B at 180 min worked out at 1.8 ×10⁻⁶ cm/s.
For the molecule `CC[C@H]1C(=O)N[C@@H]([C@@H](C)O)C(=O)N(CCc2ccccc2)CC(=O)N(C)[C@@H](CC(C)C)C(=O)N[C@H](COC(C)(C)C)C(=O)N(C)[C@@H](CC(C)C)C(=O)N(C)[C@@H](CC)C(=O)N[C@H](C(=O)N2CCCCC2)CC(=O)N[C@H](C)C(=O)N(C)[C@@H](Cc2ccccc2)C(=O)N[C@@H](CC(C)C)C(=O)N1C` [pd409] ([dA][NMeF]L[NMeAbu]T[Gly(NCH2CH2Ph)][NMeL][dS](tBu)[NMeL][NMeAbu]D-Piperidide; lactam N-11), the Papp A→B at 180 min was 1.4 ×10⁻⁶ cm/s. The Papp A→B at 180 min values of the last two molecules are within 1.5-fold of each other.
With `CC[C@H]1C(=O)N(C)[C@@H](Cc2ccccc2)C(=O)N[C@@H](C)C(=O)N(C)[C@@H](CC(C)C)C(=O)N(C)[C@@H](CC)C(=O)N[C@@H]([C@@H](C)O)C(=O)N(CCc2ccccc2)CC(=O)N(C)[C@@H](CC(C)C)C(=O)N[C@H](C(=O)N2CCCCC2)CC(=O)N(C)[C@@H](C(C)C)C(=O)N[C@@H](CC(C)C)C(=O)N1C` [pd410] ([NMeV]L[NMeAbu][NMeF]A[NMeL][NMeAbu]T[Gly(NCH2CH2Ph)][NMeL]D-Piperidide; lactam N-11) the figure was 6 ×10⁻⁶ cm/s.
`CC[C@H](C)[C@@H]1NC(=O)[C@H](CC(C)C)N(C)C(=O)CN(C)C(=O)C[C@@H](C(=O)N2CCCCC2)NC(=O)[C@H](CC(C)C)N(C)C(=O)[C@@H](COC(C)(C)C)NC(=O)[C@H](CC)N(C)C(=O)[C@H](Cc2ccccc2)N(C)C(=O)CN(CCc2ccccc2)C(=O)[C@H]([C@@H](C)O)NC(=O)[C@H](CC)N(C)C1=O` [pd411] ([Sar][NMeL]I[NMeAbu]T[Gly(NCH2CH2Ph)][NMeF][NMeAbu][dS](tBu)[NMeL]D-Piperidide; lactam N-11): the Papp A→B at 180 min is 3.3 ×10⁻⁶ cm/s.
`CC[C@H]1C(=O)N[C@@H]([C@@H](C)O)C(=O)N(C)CC(=O)N(C)[C@@H](Cc2ccccc2)C(=O)N(C)[C@@H](CC)C(=O)N[C@@H](COC(C)(C)C)C(=O)N(C)[C@@H](CC(C)C)C(=O)N[C@H](C(=O)N2CCCCC2)CC(=O)N(CCc2ccccc2)CC(=O)N(C)[C@@H](CC(C)C)C(=O)N[C@@H](CC(C)C)C(=O)N1C` [pd412] ([Gly(NCH2CH2Ph)][NMeL]L[NMeAbu]T[Sar][NMeF][NMeAbu]S(tBu)[NMeL]D-Piperidide; lactam N-11) returned a Papp A→B at 180 min of 1.5 ×10⁻⁶ cm/s.
Molecule `CC[C@H](C)[C@@H]1NC(=O)[C@H](CC(C)C)N(C)C(=O)[C@@H](CC(C)C)NC(=O)C[C@@H](C(=O)N2CCCCC2)NC(=O)[C@H](CC(C)C)N(C)C(=O)[C@H](Cc2ccccc2)N(C)C(=O)[C@H](COC(C)(C)C)NC(=O)CN(CCc2ccccc2)C(=O)CN(C)C(=O)[C@H]([C@@H](C)O)NC(=O)[C@H](CC)N(C)C1=O` [pd413] ([dL][NMeL]I[NMeAbu]T[Sar][Gly(NCH2CH2Ph)]S(tBu)[NMeF][NMeL]D-Piperidide; lactam N-11) yielded a Papp A→B at 180 min of 1.5 ×10⁻⁶ cm/s.
Regarding `CC[C@H](C)[C@@H]1NC(=O)[C@H](CC(C)C)N(C)C(=O)[C@@H](C)NC(=O)C[C@@H](C(=O)N2CCCCC2)NC(=O)[C@H](CC)N(C)C(=O)[C@H](Cc2ccccc2)N(C)C(=O)[C@H](COC(C)(C)C)NC(=O)[C@H](CC(C)C)N(C)C(=O)[C@H](CC)N(C)C(=O)[C@H]([C@@H](C)O)NC(=O)CN(CCc2ccccc2)C1=O` [pd414] ([dA][NMeL]I[Gly(NCH2CH2Ph)]T[NMeAbu][NMeL]S(tBu)[NMeF][NMeAbu]D-Piperidide; lactam N-11), the apical-to-basolateral permeability (Papp A→B) at 180 min is 1.6 ×10⁻⁶ cm/s.
For `CC[C@@H]1NC(=O)[C@H](Cc2ccccc2)N(C)C(=O)[C@H](CC(C)C)N(C)C(=O)[C@H](CC(C)C)NC(=O)[C@H](CC)N(C)C(=O)C[C@@H](C(=O)N2CCCCC2)NC(=O)[C@H](CC(C)C)N(C)C(=O)CN(C)C(=O)[C@H]([C@@H](C)O)NC(=O)CN(CCc2ccccc2)C(=O)[C@H](CC(C)C)N(C)C1=O` [pd415] ([NMeAbu]L[NMeL][NMeF][Abu][NMeL][Gly(NCH2CH2Ph)]T[Sar][NMeL]D-Piperidide; lactam N-11), the Papp A→B at 180 min amounted to 3.3 ×10⁻⁶ cm/s. This Papp A→B at 180 min lies about 2.1-fold higher than the previous one.
`CCOCCN1CC(=O)N(C)[C@@H](CC(C)C)C(=O)N[C@@H](COC(C)(C)C)C(=O)N(C)[C@@H](Cc2ccccc2)C(=O)N(C)[C@@H](CC)C(=O)N[C@H](C(=O)N2CCCCC2)CC(=O)N[C@H](CC(C)C)C(=O)N(C)[C@@H](Cc2ccccc2)C(=O)N[C@@H](CC(C)C)C(=O)N(C)[C@@H](CC)C(=O)N[C@@H]([C@@H](C)O)C1=O` [pd416] ([dL][NMeF]L[NMeAbu]T[Gly(N-(CH2)2OEt)][NMeL]S(tBu)[NMeF][NMeAbu]D-Piperidide; lactam N-11) showed an apical-to-basolateral permeability (Papp A→B) at 180 min of 3.1 ×10⁻⁶ cm/s.
Molecule `CCOCCN1CC(=O)N(C)[C@@H](CC(C)C)C(=O)N[C@H](C(=O)N2CCCCC2)CC(=O)N(C)[C@@H](C(C)C)C(=O)N[C@@H](CC(C)C)C(=O)N(C)[C@@H](CC)C(=O)N(C)[C@@H](Cc2ccccc2)C(=O)N[C@@H](CC(C)C)C(=O)N(C)[C@@H](Cc2ccccc2)C(=O)N(C)[C@@H](CC)C(=O)N[C@@H]([C@@H](C)O)C1=O` [pd417] ([NMeV]L[NMeAbu][NMeF]L[NMeF][NMeAbu]T[Gly(N-(CH2)2OEt)][NMeL]D-Piperidide; lactam N-11) came in with a Papp A→B at 180 min of 1 ×10⁻⁶ cm/s.
